# Results: patent EP3290412A1, “HIV-1 NUCLEOCAPSID INHIBITORS” (Università degli Studi di Siena, priority 2016, dated 2018)
# How the values were obtained:
# [1] = tested on: HIV-1 reference strain NL4-3; assay: BiCycle assay (MT-2 then TZM-bl cells); assay type: cell-based; conditions: Human immunodeficiency virus 1, NL43, TZM-bl; for IC50: read-out: BiCycle IC50 nM; for EC50: read-out: Mean EC50 (nM)
# How it was run: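 MT-2 cells were infected with NL4-3 in the presence of five-fold compound dilutions. After 72 h, the supernatant was passed to TZM-bl cells. Two days later, luciferase luminescence was read and IC50 calculated, giving a readout that spans the whole replication cycle.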
# [2] = tested on: ARP clone 11808 (PI); assay: BiCycle assay, resistant viral strain; assay type: cell-based, HIV-1; conditions: IC50 resistant strain / IC50 wild type NL4-3, BiCycle Assay
# Method: (§1) BiCycle Assay is cell based assay allowing the evaluation of the antiviral activity of HIV-1 inhibitors on the whole replication cycle of HIV-1. The assay consists in a first round of infection of the T-cell line MT-2 followed by infection of TZM-bl cells. MT-2 cells were seeded at a concentration of 50,000 cells/well in a 96-well plate and infected with the HIV-1 reference strain NL4-3 in presence of five-fold dilutions of the investigational compounds. After 72 hours, 50 µl of supernatant from each well, containing the virus produced in the first round of infection, were used to infect TZM-bl cells seeded in a 96-plate well at a concentration of 30,000 cells/well. Two days later, cells were lysed adding 40 µl of Glo Lysis Buffer (Promega) to each well for 5 minutes, then 40 µl of Brighy-Glo Luciferase Reagent (Promega) were added to each well for relative luminescence units (RLU) counting using Glo-Max Multi Detection System (Promega). RLU values from each well were elaborated using the GraphPad v5.0 software to calculate the IC50 of each compound.
# (§2) The antiviral activity of some of the compounds listed in Table 3 was further evaluated determining the IC50 with viruses carrying resistant mutations that reduce the susceptibility to drugs currently employed in clinical practice to treat HIV infection. The resistant viruses were obtained through the NIH AIDS Reagent Program (www.aidsreagent.org) and have been already characterized by the Phenosense Assay (Monogram Biosciences), considered as the reference assay for phenotypic investigation of HIV drug resistance due to its large application in clinical trials.
# (§3) IC50 values of resistant viral strains were determined by using the BiCycle Assay as previously described. The results of the analysis are summarized in Table 6, where fold change values are calculated as the ratio between the IC50 values of resistant HIV-1 strains and the IC50 value of the wild type reference HIV-1 strain NL4-3. Table 6. Fold change values of resistant viral strains
# [3] = tested on: ARP clone 11842 (INI); assay: BiCycle assay, resistant viral strain; assay type: cell-based, HIV-1; conditions: IC50 resistant strain / IC50 wild type NL4-3, BiCycle Assay
# Method: as §1, §2, §3
# [4] = tested on: ARP clone 11845 (INI); assay: BiCycle assay, resistant viral strain; assay type: cell-based, HIV-1; conditions: IC50 resistant strain / IC50 wild type NL4-3, BiCycle Assay
# Method: as §1, §2, §3
# [5] = tested on: ARP clone 12229 (NNRTI); assay: BiCycle assay, resistant viral strain; assay type: cell-based, HIV-1; conditions: IC50 resistant strain / IC50 wild type NL4-3, BiCycle Assay
# Method: as §1, §2, §3
# [6] = tested on: ARP clone 12231 (NNRTI); assay: BiCycle assay, resistant viral strain; assay type: cell-based, HIV-1; conditions: IC50 resistant strain / IC50 wild type NL4-3, BiCycle Assay
# Method: as §1, §2, §3
# [7] = tested on: ARP clone 12465 (PI); assay: BiCycle assay, resistant viral strain; assay type: cell-based, HIV-1; conditions: IC50 resistant strain / IC50 wild type NL4-3, BiCycle Assay
# Method: as §1, §2, §3
# [8] = tested on: ARP clone 7401 (NRTI); assay: BiCycle assay, resistant viral strain; assay type: cell-based, HIV-1; conditions: IC50 resistant strain / IC50 wild type NL4-3, BiCycle Assay
# Method: as §1, §2, §3
# [9] = tested on: HIV-DNA 2-LTR circles; assay: Quantification of 2-LTR products in infected MT-2 cells (real time PCR); assay type: cell-based, HIV-1; conditions: for 2-LTR/HIV-DNA ratio drug vs no-drug: NL4-3 M.O.I. 0.05, 24 hours, drug 28 1000 nM, 31 3000 nM, 23 5000 nM, Raltegravir 1000 nM
# Excerpt: During the replication cycle of HIV, several forms of episomic HIV-DNA can be found in the nucleous as a result of abortive integration events in the genome of the cells. Unintegrated HIV-DNA forms such 2-LTR circles are considered as a marker of ongoing replication and can be easily detected and quantified through real time PCR systems. […] Therefore, the quantification of 2-LTR circles can be used as an indirect method to test the blockade of the integration step by a candidate or licensed integrase inhibitors (Reigadas S. et al, J. Antimicrob. Chemother. 2010; 65: 434-437).
# Since NCp7 partecipates to several steps of HIV replication including integration, it was developed a cell based assay aimed at the quantification of 2-LTR circles in infected cells cultured in presence of inhibitory concentrations of candidate NCp7 inhibitors. In each culture 3x10^6 MT-2 cells were infected with HIV-1 reference strain NL4-3 at M.O.I. 0.05 in presence of investigational NCp7 inhibitors 23, 31, 28. A culture with the HIV-1 Integrase inhibitor Raltegravir™ was prepared as a reference for the inhibition of integration, while an infected culture without drugs (named "no-drug") was used to compare the amount of 2-LTR in the different cultures. Table 7 indicates the concentration of drugs used in each culture in comparison to the values of EC50 (calculated through the BiCycle Assay) and the values of TD50. Table 7. Concentration of drugs used [c] in comparison to the values of EC50 (calculated through the BiCycle Assay) and the values of TD50.
# Cultures were incubated at 37°C and 5% CO2 for 24 hours, then cells were harvested and total DNA was extracted using the "MagCore® Genomic DNA Whole Blood Kit" automated system (Diatech).
# Around 500 ng of extracted DNA were used in separated real time PCR reactions specific for the quantification of the total genomic and HIV-1 DNA, and the HIV-DNA 2-LTR circles, respectively. Both values were normalized as copies/10^6 cells according to β-globin gene quantification included in the first method. For each culture a ratio between 2-LTR/ total HIV-DNA circles was calculated and compared to the ratio obtained with the "no-drug" culture. Table 8. 2-LTR assay results
# [10] = molecular target: T1, HIV-1 integrase (Human immunodeficiency virus type 1 group M subtype B, UniProt P04585); assay: HIV-integrase assay (strand transfer kit); assay type: biochemical
# T1 construct: Full-length recombinant HIV-1 integrase protein was loaded onto the DS DNA substrate; purchased Xpress Bio Co EZ-1700
# Method: The integrase assay was performed using the HIV-1 integrase assay kit (Xpress Bio Co, catalog number EZ-1700, Thurmont, MD) according to the manufacturer's instructions. In this assay the streptavidin-coated 96-well plates were used and coated with a double stranded HIV-1 LTR U5 donor substrate (DS) DNA containing an end-labeled biotin. Full-length recombinant HIV-1 integrase protein was loaded onto the DS DNA substrate. After, the compounds were added in the concentration 5 - 1500 µM, and then a different double-stranded target substrate (TS) DNA containing a 3'-end modification was added to the reaction mixture. The HIV-1 integrase cleaved the terminal two bases from the exposed 3'-end of the HIV-1 LTR DS DNA and then catalyzed a strand-transfer recombination reaction to integrate the DS DNA into the TS DNA. The products of the reaction were detected colorimetrically using an HRP-labeled antibody directed against TS 3'-end modification. […] The percentage of DMSO was fixed at 2.5% v/v in all samples. The absorbance at 450 nm was recorded with an iMark™ Microplate Absorbance Reader (Bio-Rad Laboratories). The absorbance values were corrected from the mean blank absorbance (reaction buffer negative control). To calculate the IC50 values, the experimental data were fitted in a logarithm scale using Origin software (Dose response fitting).
SMILES,IC50 [1] [nM],EC50 [1] [nM],Fold change 11808 (PI) [2],Fold change 11845 (INI) [4],Fold change 12229 (NNRTI) [5],Fold change 12231 (NNRTI) [6],Fold change 12465 (PI) [7],Fold change 7401 (NRTI) [8],2-LTR/HIV-DNA ratio drug vs no-drug [9],further results
"Cc1cccnc1-c1nc(O)c(O)c(C(=O)N[C@H](C)C2CCCCC2)n1 [Compound 23, (R)-N-(1-cyclohexylethyl)-5,6-dihydroxy-2-(3-methylpyridin-2-yl)pyrimidine-4-carboxamide]",203,200,5.1,1.2,1.0,2.8,2.3,1.4,0.5,Fold change 11842 (INI) [3]: 8.6
"C[C@@H](NC(=O)c1nc(-c2nccc3ccccc23)nc(O)c1O)C1CCCCC1 [Compound 31, (R)-N-(1-cyclohexylethyl)-5,6-dihydroxy-2-(isoquinolin-1-yl)pyrimidine-4-carboxamide]",100,100,1.6,0.9,1.3,2.0,2.1,1.3,1.1,Fold change 11842 (INI) [3]: 9.8
"COc1ccnc(-c2nc(O)c(O)c(C(=O)N[C@H](C)C3CCCCC3)n2)c1 [Compound 28, (R)-N-(1-cyclohexylethyl)-5,6-dihydroxy-2-(4-methoxypyridin-2-yl)pyrimidine-4-carboxamide]",40.5,41,1.4,2.3,0.1,2.8,3.7,0.8,1.3,IC50 [10]: 84000 nM; fold increase in IN IC50 values in comparison to NC Inhibition IC50 values [10]: 3.8 fold; Fold change 11842 (INI) [3]: 2.9
"Cc1nnc(C(=O)NC(C)(C)c2nc(C(=O)NCc3ccc(F)cc3)c(O)c(=O)n2C)o1 [Raltegravir™, Raltegravir, reference compound]",,1,,,,,,,2.9,"inhibition at 0.175 µM ([10]; read-out: % of inhibition (positive control)): ≥ 97%; titer / amounts of 2-LTR circles compared with ""no-drug"" culture ([9]; NL4-3, 24 hours): three times higher"
"O=C(NCC1CCCCC1)c1nc(-c2ccccn2)nc(O)c1O [Compound 1, N-(cyclohexylmethyl)-5,6-dihydroxy-2-(pyridin-2-yl)pyrimidine-4-carboxamide]",1210,,0.8,1.2,0.6,1.5,2.9,,,
"C[C@@H](NC(=O)c1nc(-c2cc(Cl)ccn2)nc(O)c1O)C1CCCCC1 [Compound 26, (R)-2-(4-chloropyridin-2-yl)-N-(1-cyclohexylethyl)-5,6-dihydroxypyrimidine-4-carboxamide]",121,,0.2,0.7,,0.8,0.5,0.1,,IC50 [10]: 150000 nM; fold increase in IN IC50 values in comparison to NC Inhibition IC50 values [10]: 100 fold
"C[C@@H](NC(=O)c1nc(-c2nc3ccccc3[nH]2)nc(O)c1O)C1CCCCC1 [Compound 29, (R)-2-(1H-benzo[d]imidazol-2-yl)-N-(1-cyclohexylethyl)-5,6-dihydroxypyrimidine-4-carboxamide]",1780,,,,,,,,,
"C[C@@H](NC(=O)c1nc(-c2cccc(N)n2)nc(O)c1O)C1CCCCC1 [Compound 45, (R)-2-(6-aminopyridin-2-yl)-N-(1-cyclohexylethyl)-5,6-dihydroxypyrimidine-4-carboxamide]",1390,,,,,,,,,
"C[C@@H](NC(=O)c1nc(-c2ncccc2Cl)nc(O)c1O)C1CCCCC1 [Compound 33, (R)-2-(3-chloropyridin-2-yl)-N-(1-cyclohexylethyl)-5,6-dihydroxypyrimidine-4-carboxamide]",1220,,,,,,,,,
"O=C(NCCCC1CCCCC1)c1nc(-c2ccccn2)nc(O)c1O [Compound 8, N-(3-cyclohexylpropyl)-5,6-dihydroxy-2-(pyridin-2-yl)pyrimidine-4-carboxamide]",518,,,,,,,,,
"C[C@H](NC(=O)c1nc(-c2ccccn2)nc(O)c1O)C1CCCCC1 [Compound 38, (S)-N-(1-cyclohexylethyl)-5,6-dihydroxy-2-(pyridin-2-yl)pyrimidine-4-carboxamide]",154,,,,,,,,,
"CCNCc1ccc(-c2nc(O)c(O)c(C(=O)N[C@H](C)C3CCCCC3)n2)nc1 [Compound 60, (R)-N-(1-cyclohexylethyl)-2-(5-((ethylamino)methyl)pyridin-2-yl)-5,6-dihydroxypyrimidine-4-carboxamide]",694,,,,,,,,,IC50 [10]: 10000 nM; fold increase in IN IC50 values in comparison to NC Inhibition IC50 values [10]: 2.9 fold
